In patent publication US10385021B2, “Carbamate compound and use thereof” (SUMITOMO CHEMICAL COMPANY, LIMITED, priority 2015, dated 2019):

System: wheat rust fungus (Puccinia recondita)
Experiment: Test Example 2: wheat rust, foliar spray before inoculation, lesion area
Assay type: in vivo
Conditions: 200 ppm foliar spray, wheat (Shirogane), inoculated 5 days after spraying, formulation per Formulation Example 6

## COC(=O)Nc1ccccc1COc1ccc(-c2ccccn2)cc1 [methyl N-(2-{[4-(pyridine-2-yl)phenoxy)methyl}phenyl)carbamate]
  area of the lesion relative to untreated wheat: ≥ 70%
